The subject of assay [1] is PBMC (CD8+ T cells) of HIV-1 infected individuals. Put plainly: IFN-γ Elispot assay with PBMC and synthetic HIV-1 peptides. The format is cell-based, human. The procedure: Peptides were added directly to the wells at a final concentration of 1×10^−5 molar. Cells were added to the wells at 50,000 to 100,000 cells per well. The plates were incubated at 37° C., 5% CO2 overnight (14-16 h) and then processed as described. IFN-γ producing cells were counted by direct visualization and are expressed as spot forming cells (SFC) per 10^6 cells. The number of specific IFN-γ secreting T-cells was calculated by subtracting the negative control value from the established SFC count. […] Responses ≧40 SFC per 10^6 input cells above background were considered positive. The positive control consisted of incubation of 100,000 PBMC with phytohaemagglutinin (PHA). […] Fine mapping of epitopes by Elispot assay was performed, using peptide truncations (e.g., as described in Altfield et al., 2000, J. Virol. 74:8541). 100,000 PBMC per well were incubated with concentrations from 10^−4 M to 10^−11 M of peptide overnight on the Elispot plate. All assays were run in duplicate. The optimal peptide was defined as the peptide that induced 50% maximal specific IFN-γ production of T-cells at the lowest peptide concentration.

In a further assay the test system is HIV. The assay can be described thus: Level of CTL immune response elicited by peptide immunogen.
In a further assay the test system is CD8+ T cells. Put plainly: Flow cytometric detection of antigen-induced intracellular IFN-γ. The format is cell-based, human. To be noted: subject AC-06. The procedure: CD8+ T cells were non-specifically expanded from PBMC over 10 days, using a bi-specific […]. Peptide-specific CD8+ T cell lines were subsequently isolated using a standard IFN-γ catching assay. After expansion 10-20×10^6 CD8+ T cells were incubated on 24-well-plates with 20 μM peptide and 1 ug/ml each of the mAbs anti-CD28 and anti-CD49d (Becton Dickinson) at 37° C., 5% CO2, for 6-8 hour. Cell were subsequently labeled with a bi-specific CD45/IFN-γ catching antibody and incubated for 45 min at 37° C., 5% CO2. After several washes, the IFN-γ producing cells were stained with a second IFN-γ-PE detection antibody and separated by anti-PE mAb labeled with magnetic beads (MACS, Miltenyi Biotech, Hamburg, Germany). The isolated cells were then expanded for 10 days using autologous irradiated feeders.
Intracellular cytokine staining assays were performed using known methods, e.g.,described by Pitcher et al., 1999, Nature Medicine 5:518 or Goulder et al, 2000, J. Exp. Med. 192:1819). […] Cells were then washed and analyzed on a FACSort Flowcytometer (Becton Dickinson Immunocytometry systems, San Jose, Calif.) using peridinin chlorophyl protein (PerCP), allophycocyanin (APC) and fluorescein isothiocyanate (FITC) as fluorescent parameters. […]
For orientation: In flow cytometry, cells or beads pass a laser one at a time.

Values joined by “and” are separate entries in the source; they are usually repeats but may differ in a detail not shown here. Equal values may be shown once.

As to “THPRVSSEVHIPLG (Human immunodeficiency virus type 1) [vif-10]”, the “Magnitude of peptide-specific CD8+ T cell responses against Vif overlapping peptides, IFN-γ ELISPOT” value (from here on “Magnitude … IFN-γ ELISPOT”) in assay [1] (individual 6003) is on record as 0 SFC/10^6 PMBC; in assay [1] (individual 6007), 0 SFC/10^6 PMBC; in assay [1] (individual 6009), 40 SFC/10^6 PMBC; in assay [1] (individual AC-01), 0 SFC/10^6 PMBC; in assay [1] (individual AC-04), 0 SFC/10^6 PMBC; in assay [1] (individual AC-06), 11800 SFC/10^6 PMBC. The “Magnitude … IFN-γ ELISPOT” value in assay [1] (individual AC-07), in assay [1] (individual AC-13), in assay [1] (individual AC-27), in assay [1] (individual AC-31), in assay [1] (individual AC-36) and in assay [1] (individual AC-42) was 0 SFC/10^6 PMBC each time. Besides, the “Magnitude … IFN-γ ELISPOT” value in assay [1] (individual AC-43) is recorded as 0 SFC/10^6 PMBC; in assay [1] (individual AC-46) it was 0 SFC/10^6 PMBC; in assay [1] (individual AC-59), 840 SFC/10^6 PMBC; in assay [1] (individual AC-TZA), 0 SFC/10^6 PMBC; in assay [1] (individual CMW), 0 SFC/10^6 PMBC; in assay [1] (individual JMV) it was 0 SFC/10^6 PMBC. The “Magnitude … IFN-γ ELISPOT” value in assay [1] (individual JRH) and in assay [1] (individual TMH#4) was 0 SFC/10^6 PMBC each time. Also, the “magnitude of CTL response by Elispot” value in assay [1] (individual AC-06, text) came out at 1180 SFC/10^6 PBMC.

Take “vif-3: overlapping peptide (12-18mer) spanning the HIV-1 SF2 B clade Vif sequence (RIRTWKSLVK; Human immunodeficiency virus type 1)”: the “Magnitude … IFN-γ ELISPOT” value in assay [1] (individual 6003) came out at 0 SFC/10^6 PMBC; in assay [1] (individual 6007), 0 SFC/10^6 PMBC; in assay [1] (individual 6009), 290 SFC/10^6 PMBC; in assay [1] (individual AC-01), 0 SFC/10^6 PMBC; in assay [1] (individual AC-04), 0 SFC/10^6 PMBC; in assay [1] (individual AC-06), 680 SFC/10^6 PMBC. Besides, the “Magnitude … IFN-γ ELISPOT” value in assay [1] (individual AC-07), in assay [1] (individual AC-13), in assay [1] (individual AC-27), in assay [1] (individual AC-31), in assay [1] (individual AC-36) and in assay [1] (individual AC-42) was 0 SFC/10^6 PMBC throughout. For the same substance, the “Magnitude … IFN-γ ELISPOT” value in assay [1] (individual AC-43), in assay [1] (individual AC-46), in assay [1] (individual AC-59), in assay [1] (individual AC-TZA), in assay [1] (individual CMW) and in assay [1] (individual JMV) was 0 SFC/10^6 PMBC each time. The “Magnitude … IFN-γ ELISPOT” value in assay [1] (individual JRH) was found to be 430 SFC/10^6 PMBC; in assay [1] (individual TMH#4) it was 0 SFC/10^6 PMBC.

Take “ALIRILQQL (Human immunodeficiency virus type 1)”: the “recognition (individuals with the corresponding HLA class I alleles that responded to the epitope)” value (shortened to “recognition”) in assay [1] was 8/24. Moreover, the “level of the immune response elicited, compared with SEQ ID NO:1” value with HIV is “at least 1 log”.

Regarding “REPHNEWTL (Human immunodeficiency virus type 1)”, the “recognition” value in assay [1] was 1/1.

Turning to “HPRVSSEVHI (Human immunodeficiency virus type 1)”, in assay [1], the “recognition” value was 3/8.

With “RIRTWKSLVK (Human immunodeficiency virus type 1)”, in assay [1], the “recognition” value is recorded as 3/15.

As to “ISKKAKGWF (Human immunodeficiency virus type 1)”, the “recognition” value in assay [1] was 2/6.

As for “FPRIWLHGL (Human immunodeficiency virus type 1)”, the “recognition” value in assay [1] was 2/2 and 4/8. In addition, the “individuals expressing the HLA allele that targeted the epitope” value in assay [1] (AL9: HLA-A2, FL9: HLA-B7) was 4/8.

For the substance “GPGHKARVL (Human immunodeficiency virus type 1)”, in the assay on CD8+ T cells, the “contribution to total HIV-1-specific CD8 responses” value was determined as 32% and the “percentage of CD8+ T cells specific for the epitope, intracellular IFN-γ” value came out at 5.6%.

As to “LADQLIHLHY (Human immunodeficiency virus type 1)”, the “recognition” value in assay [1] is recorded as 2/5.

As to AVRHFPRIW, in assay [1], the “recognition” value is given as 4/6.

For the origin of these results see patent publication US6974574B2, “Methods of inducing an HIV specific response using a Vpr-specific epitope” (The General Hospital Corporation, priority 2001, dated 2005).
